≈ marks a conversion by molar mass, not a printed value. Like-named read-outs stand apart in the source and are kept apart here.
Tests used:
Mtb H37Rv = assay: Resazurin reduction microplate assay, growth inhibition of Mtb H37Rv; format: cell-based, Mycobacterium tuberculosis; conditions: for MIC50: Mycobacterium tuberculosis, H37RV
Mtb MurX = Mtb MurX (Mycobacterium tuberculosis, UniProt P9WMW7); assay: Radiochemical (TLC) MurX-MurG coupled inhibition assay in Mtb mc2 6230 membranes; format: biochemical; conditions: 200 nM inhibitor, decrease in lipid II formation
Sequence of Mtb MurX (P9WMW7 whole entry): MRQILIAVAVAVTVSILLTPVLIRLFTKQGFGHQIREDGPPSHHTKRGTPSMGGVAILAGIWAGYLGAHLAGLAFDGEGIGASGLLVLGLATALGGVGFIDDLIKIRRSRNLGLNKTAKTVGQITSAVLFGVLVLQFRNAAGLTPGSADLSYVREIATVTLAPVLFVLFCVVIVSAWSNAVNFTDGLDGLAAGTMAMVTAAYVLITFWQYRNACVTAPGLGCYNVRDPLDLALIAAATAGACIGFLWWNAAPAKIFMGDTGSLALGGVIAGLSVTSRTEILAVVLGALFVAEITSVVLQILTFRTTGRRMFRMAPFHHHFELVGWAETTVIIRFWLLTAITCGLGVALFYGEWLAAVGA

HEK293 cells = assay: Cytotoxicity counter-screen, resazurin reduction microplate assay; format: cell-based; conditions: Homo sapiens, tested up to 200 μM, read-out: MIC50 (HEK293)
[1] = average of two independent experiments, each in triplicate, read-out: MIC50 Mtb H37Rv
[2] = average of two independent experiments, each in triplicate

Row | Structure (SMILES) | MIC50 (Mtb H37Rv; [1]) [µM] | MIC50 (Mtb H37Rv; read-out: MIC50 Mtb H37Rv) [µM] | inhibition at 0.2 µM (Mtb MurX) [%] | CC50 (HEK293 cells) [µM] | MIC50 (Mtb H37Rv; Mtb H37Rv, read-out: MIC50 against Mtb) [µM] | MIC50 Mtb H37Rv (Mtb H37Rv; [2]) [µM]
1 | CO[C@H]1/C=C/O[C@@]2(C)Oc3c(C)c(O)c4c(O)c(c(/C=N/N5CCN(C)CC5)c(O)c4c3C2=O)NC(=O)/C(C)=C\C=C\[C@H](C)[C@H](O)[C@@H](C)[C@@H](O)[C@@H](C)[C@H](OC(C)=O)[C@@H]1C [RIF, Rifampicin, reference compound] | 0.006 ± 0.002 (≈ 0.00494 µg/mL) | – | – | – | – | –
2 | NNC(=O)c1ccncc1 [INH, isoniazid, reference compound] | 0.025 ± 0.005 (≈ 0.00343 µg/mL) | – | – | – | – | –
3 | C[C@@H]([C@H](NC(=O)[C@H](CC(=O)O)NC(=O)N[C@@H](Cc1c[nH]c2ccccc12)C(=O)O)C(=O)NC[C@H]1C[C@@H](O)[C@H](n2ccc(=O)[nH]c2=O)O1)N(C)C(=O)CN [Compound 27] | – | > 6.25 | 34 | > 200 | – | –
4 | C[C@@H]([C@H](NC(=O)[C@H](CC[S+](C)[O-])NC(=O)N[C@@H](Cc1c[nH]c2ccccc12)C(=O)O)C(=O)NC[C@H]1C[C@@H](O)[C@H](n2ccc(=O)[nH]c2=O)O1)N(C)C(=O)[C@@H](N)Cc1cccc(O)c1 (some centres unmarked) [Compound 6, Dihydrosansanmycin C] | 18.5 ± 0.7 (≈ 16.3 µg/mL) | – | 68 | > 200 | – | –
5 | C[C@@H]([C@H](NC(=O)[C@H](CCCCN)NC(=O)N[C@@H](Cc1c[nH]c2ccccc12)C(=O)O)C(=O)NC[C@H]1C[C@@H](O)[C@H](n2ccc(=O)[nH]c2=O)O1)N(C)C(=O)CN [Compound 28] | 0.7 ± 0.1 (≈ 0.53 µg/mL) | – | 47 | > 200 | 0.7 (≈ 0.53 µg/mL) | –
6 | CC[C@@H](C)[C@H](NC(=O)N[C@@H](Cc1c[nH]c2ccccc12)C(=O)O)C(=O)N[C@H](C(=O)NC[C@H]1C[C@@H](O)[C@H](n2ccc(=O)[nH]c2=O)O1)[C@H](C)N(C)C(=O)CN [Compound 21] | 0.93 ± 0.11 (≈ 0.69 µg/mL) | – | 46 | > 200 | – | –
7 | CC(C)[C@H](NC(=O)N[C@@H](Cc1c[nH]c2ccccc12)C(=O)O)C(=O)N[C@H](C(=O)NC[C@H]1C[C@@H](O)[C@H](n2ccc(=O)[nH]c2=O)O1)[C@H](C)N(C)C(=O)CN [Compound 22] | 0.88 ± 0.12 (≈ 0.64 µg/mL) | – | 26 | > 200 | – | –
8 | CC(C)C[C@H](NC(=O)N[C@@H](Cc1c[nH]c2ccccc12)C(=O)O)C(=O)N[C@H](C(=O)NC[C@H]1C[C@@H](O)[C@H](n2ccc(=O)[nH]c2=O)O1)[C@H](C)N(C)C(=O)[C@@H](N)C1CCCCC1 [Compound 11] | 1.1 ± 0.84 (≈ 0.906 µg/mL) | – | 14 | > 200 | – | 0.95 to 1.35
9 | CC(C)C[C@H](NC(=O)N[C@@H](Cc1c[nH]c2ccccc12)C(=O)O)C(=O)N[C@H](C(=O)NC[C@H]1C[C@@H](O)[C@H](n2ccc(=O)[nH]c2=O)O1)[C@H](C)N(C)C(=O)[C@@H](N)CCCCN [Compound 15] | 1.35 ± 0.07 (≈ 1.1 µg/mL) | – | 7 | > 200 | – | 0.95 to 1.35
10 | CC(C)C[C@H](NC(=O)N[C@@H](Cc1c[nH]c2ccccc12)C(=O)O)C(=O)N[C@H](C(=O)NC[C@H]1C[C@@H](O)[C@H](n2ccc(=O)[nH]c2=O)O1)[C@H](C)N(C)C(=O)[C@@H](N)CCCN [Compound 16] | 0.95 ± 0.07 (≈ 0.759 µg/mL) | – | 5 | > 200 | – | 0.95 to 1.35
11 | CC(C)C[C@H](NC(=O)N[C@@H](Cc1c[nH]c2ccccc12)C(=O)O)C(=O)N[C@H](C(=O)NC[C@H]1C[C@@H](O)[C@H](n2ccc(=O)[nH]c2=O)O1)[C@H](C)N(C)C(=O)[C@@H](N)Cc1cccc(O)c1 [Compound 5, Dihydrosansanmycin B] | 0.3 ± 0.03 (≈ 0.254 µg/mL) | – | > 51 | > 200 | – | 0.30 ± 0.07 (≈ 0.254 µg/mL)
12 | CC(C)C[C@H](NC(=O)N[C@@H](Cc1c[nH]c2ccccc12)C(=O)O)C(=O)N[C@H](C(=O)NC[C@H]1C[C@@H](O)[C@H](n2ccc(=O)[nH]c2=O)O1)[C@H](C)N(C)C(=O)[C@@H](N)CC(=O)O [Compound 14] | – | 9.8 ± 1.1 (≈ 7.84 µg/mL) | 8 | > 200 | – | –
13 | CC(C)C[C@H](NC(=O)N[C@@H](Cc1c[nH]c2ccccc12)C(=O)O)C(=O)N[C@H](C(=O)NC[C@H]1C[C@@H](O)[C@H](n2ccc(=O)[nH]c2=O)O1)[C@H](C)N(C)C(=O)[C@@H](N)Cc1ccc2ccccc2c1 [Compound 9] | 3 ± 0.7 (≈ 2.65 µg/mL) | – | 27 | > 200 | – | –
14 | C[C@@H]([C@H](NC(=O)[C@H](Cc1ccccc1)NC(=O)N[C@@H](Cc1c[nH]c2ccccc12)C(=O)O)C(=O)NC[C@H]1C[C@@H](O)[C@H](n2ccc(=O)[nH]c2=O)O1)N(C)C(=O)CN [Compound 29] | 0.26 ± 0.15 (≈ 0.202 µg/mL) | – | 60 | > 200 | – | –
15 | C[C@@H]([C@H](NC(=O)[C@H](Cc1c[nH]c2ccccc12)NC(=O)N[C@@H](Cc1c[nH]c2ccccc12)C(=O)O)C(=O)NC[C@H]1C[C@@H](O)[C@H](n2ccc(=O)[nH]c2=O)O1)N(C)C(=O)CN [Compound 33] | 0.44 to 0.98 (≈ 0.359 to 0.799 µg/mL) | – | 52 | > 200 | – | 0.44 ± 0.06 (≈ 0.359 µg/mL)

Reference: publication PMC5337940, “Sansanmycin natural product analogues as potent and selective anti-mycobacterials that inhibit lipid I biosynthesis” (Nature Communications, 2017)
